Legend:
[1] = target: T1, Zinc finger protein 346 (ZNF346) (Homo sapiens, UniProt Q9UL40); experiment: In situ competitive profiling in live MCF7 cells (LFQ): ZNF346; format: cell-based; settings: 4 h, then 10 µM 24c, n=4
T1 construct: 1,522 proteins were enriched from MCF7 cells by 10 μM probe 24c; endogenous in cells; host or cells: MCF7
Text: (§1) In our efforts to determine the direct molecular targets of deoxyelephantopin we first performed a gel-based competitive in situ proteomic profiling assay[41] […] While the greater conformational flexibility of probe 24c could potentially lead to more promiscuous target engagement relatively to deoxyelephantopin, it was favoured based on the fact that an alkyne moiety appended to the rigid scaffold of deoxyelephantopin may hinder some of its interactions. MCF7 cells were pretreated with various concentrations of deoxyelephantopin for 4 h, harvested, lysed and the lysates were treated with the fluorogenic probe 24c-Cy3 (10 μM; Supplementary Fig. 10). […] Furthermore, cells were pretreated with 20 μM concentration of deoxyelephantopin or 24c and the proteomic profiles were compared (Fig. 6b, Supplementary Fig. 11). Multiple bands were detected that were equally competed by both DEP and 24c, thus again confirming that 24c can be used as an acceptable clickable analogue of deoxyelephantopin in pulldown assays. Having established the optimal labelling conditions by SDS–PAGE, we next carried out a mass spectrometry-based competitive profiling assay[42] coupled with the method of stable isotope labelling of amino acids in culture (SILAC)[43]. […]
(§2) Figure 6 Proteome-wide identification of deoxyelephantopin targets. […] Quantification was performed using label-free quantification (LFQ) method (n=4). […]

Cystatin-B (CSTB) = target: T2, Cystatin-B (CSTB) (Homo sapiens, UniProt P04080); experiment: In situ competitive profiling in live MCF7 cells (LFQ): CSTB; format: cell-based; settings: protein CSTB, 4 h, then 10 µM 24c, n=4
T2 construct: endogenous in cells; host or cells: MCF7
T2 sequence (P04080 whole entry): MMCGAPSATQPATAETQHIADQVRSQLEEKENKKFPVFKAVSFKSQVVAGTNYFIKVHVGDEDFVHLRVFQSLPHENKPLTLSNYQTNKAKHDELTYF
Text: as §1, §2

T1 sequence (Q9UL40 whole entry): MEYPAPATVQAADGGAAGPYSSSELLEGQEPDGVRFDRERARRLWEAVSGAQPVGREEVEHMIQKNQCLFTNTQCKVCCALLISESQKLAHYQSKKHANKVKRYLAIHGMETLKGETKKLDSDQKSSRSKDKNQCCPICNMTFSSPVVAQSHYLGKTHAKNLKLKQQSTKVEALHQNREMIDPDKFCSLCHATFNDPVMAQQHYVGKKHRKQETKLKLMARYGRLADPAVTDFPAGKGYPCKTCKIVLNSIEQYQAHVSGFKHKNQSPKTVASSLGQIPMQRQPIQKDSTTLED

C=C(C)C(=O)O[C@H]1CC2=C[C@@H](C/C(C)=C/[C@H]3OC(=O)C(=C)[C@H]13)OC2=O [deoxyelephantopin]
LFQ ratio 20 µM Deoxyelephantopin/DMSO with 24c [1]: 0.00 | LFQ ratio 20 µM Deoxyelephantopin/DMSO with 24c (Cystatin-B (CSTB)): 0.28
